Laboratory results: US20210015830A1, “COMPOSITION FOR INHIBITING REACTIVE OXYGEN SPECIES PRODUCTION” (SUNTORY HOLDINGS LIMITED, priority 2017, published 2021)
Like-named read-outs stand apart in the source and are kept apart here.

What was measured:
NADPH oxidase (NOX) = biological target: T1, NADPH oxidase (NOX) (Homo sapiens, UniProt P04839); experiment: Measurement of NOX inhibitory activity in differentiated HL-60 cells (PMA-activated superoxide production, WST-1 formazan absorbance at 450 nm); format: cell-based; conditions: for Inhibitory activity ratio: 3-acetyl triterpenic acid versus the triterpenic acid without acetyl group, formula (i)
T1 construct: HL-60 cells were differentiated into NOX-expressing granulocytes; endogenous in cells; host or cells: HL-60 cells differentiated into granulocytes with 1% DMSO
T1 sequence (P04839 1-570): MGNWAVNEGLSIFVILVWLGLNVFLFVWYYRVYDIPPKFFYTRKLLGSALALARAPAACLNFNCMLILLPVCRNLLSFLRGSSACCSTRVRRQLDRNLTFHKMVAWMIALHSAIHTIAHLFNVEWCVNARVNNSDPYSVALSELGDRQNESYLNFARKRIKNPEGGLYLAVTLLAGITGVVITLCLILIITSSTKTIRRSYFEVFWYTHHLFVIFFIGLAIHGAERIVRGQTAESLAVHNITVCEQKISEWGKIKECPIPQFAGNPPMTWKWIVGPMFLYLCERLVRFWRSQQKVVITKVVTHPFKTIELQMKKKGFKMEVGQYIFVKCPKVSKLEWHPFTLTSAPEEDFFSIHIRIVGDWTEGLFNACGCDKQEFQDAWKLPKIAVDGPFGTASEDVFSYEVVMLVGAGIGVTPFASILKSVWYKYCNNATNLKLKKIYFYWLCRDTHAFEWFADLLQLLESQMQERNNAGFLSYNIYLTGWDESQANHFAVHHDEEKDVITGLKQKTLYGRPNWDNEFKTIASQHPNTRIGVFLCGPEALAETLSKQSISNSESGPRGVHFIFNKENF
T1 sequence (P13498 1-195 partner): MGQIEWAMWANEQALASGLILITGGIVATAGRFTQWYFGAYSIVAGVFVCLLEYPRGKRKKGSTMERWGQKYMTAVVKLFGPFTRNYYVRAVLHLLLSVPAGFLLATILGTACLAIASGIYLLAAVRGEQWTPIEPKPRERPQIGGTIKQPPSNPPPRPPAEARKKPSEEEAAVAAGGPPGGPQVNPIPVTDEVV
Source text: It is known that undifferentiated human myeloid leukemia HL-60 cells have an ability to proliferate, but differentiate into mature granulocytes by adding DMSO (dimethyl sulfoxide), retinoic acid, or the like and lose their proliferative ability. Mature HL-60 cells express NOX that serves as an indicator of differentiation. NOX can be used as an indicator for evaluating NOX inhibitory activity.
HL-60 cells were differentiated into NOX-expressing granulocytes by the following method.
Then, the suspension was dispensed into cell culture dishes (100 mm) so as to be 15 mL each, and the cells were cultured in a CO2 incubator (37° C.) for 3 days.
The differentiated HL-60 cells were used to measure NOX inhibitory activity as will be described below.
WST-1 (2-(4-iodophenyl)-3-(4-nitrophenyl)-5-(2,4-disulfophenyl)-2H-tetrazolium, monosodium salt) was dissolved in a D-MEM medium so as to be 0.8 mg/mL, and thus a WST-1 solution was prepared. WST-1 reacts with superoxide and produces yellow formazan. Yellow formazan absorbs a wavelength of 450 nm, and, therefore, the amount of yellow formazan can be measured by measuring absorbance at a wavelength of 450 nm. Also, the amount of yellow formazan produced is proportional to the amount of superoxide during the reaction, and, therefore, the amount of superoxide can be measured by measuring the amount of yellow formazan produced.
PMA (phorbol 12-myristate 13-acetate) was dissolved in a D-MEM medium so as to be 4 μM, and thus a PMA solution was prepared.
PMA is known to function to activate NOX and causes superoxide production.
The differentiated HL-60 cells were collected by centrifugation, and suspended in a D-MEM medium containing neither FBS nor phenol red so as to be 5×10^6 cells/mL.
The cell suspension was added into a 96-well microplate so as to be 25 μL per well.
Next, 25 μL of the WST-1 solution prepared as described above was added to the wells.
After adding the solutions, the cell suspensions were stirred.
Thereafter, 25 μL of the prepared PMA solution was added (a final PMA concentration in the medium being 1 μM) to activate NOX and carry out a reaction at 37° C. for 60 minutes.
Then, by measuring absorbance at a wavelength of 450 nm, the amount of yellow formazan produced and thus the amount of superoxide produced by NOX were measured.
Inhibitory activity ratio=(IC50 of triterpenic acid having acetyl group)/(IC50 of triterpenic acid without acetyl group) (i)
Based on the obtained measurement results, the IC50 (μg/mL) of fraction 1 and fraction 2 was determined.
Moreover, the inhibitory activity ratio of triterpenic acid having an acetyl group in fraction 2 to triterpenic acid without an acetyl group in fraction 1 was calculated using formula (i).

[1] = system: Senescent Accelerated Model Prone 10 (SAMP10) mouse; experiment: Brain function evaluation by passive avoidance test (step-through test) in senescence accelerated model; format: in vivo; conditions: SAMP10 mice, AIN-93M containing 0.006% ursolic acid or 0.002% acetylursolic acid for 12 weeks, evaluated at 11 months old
Procedure: The effect of inhibiting a decline in brain function of the Aronia extract was evaluated using the extract powder obtained in Example 2. The Senescent Accelerated Model Prone 10 (SAMP10) mouse, which is one of the senescence accelerated models, is known to show age-related decline in brain function at an early stage, and can be used to evaluate effects on an age-related decline in brain function. Accordingly, this animal was used to investigate the brain function ameliorating effect of the Aronia extract. A series of animal experiments were carried out based on a plan that complies with the animal welfare management law and other relevant laws and that is approved by the head of an organization after being reviewed by an institutional animal experiment committee.
(§1) As for a young (young control) group, SAMP10 mice at 8 weeks old were purchased, acclimated for 7 days, and received AIN-93M (manufactured by CLEA Japan Inc.) as a base food for 12 weeks, and then the brain function was evaluated at 4 months old (N=15). As for an elderly group, mice at 14 weeks old were purchased, acclimated until 8 months old, randomly divided into 2 groups, received AIN-93M or AIN-93M containing 0.02% Aronia extract for 12 weeks, and then the brain function was evaluated at 11 months old (an elderly control group (N=26), an elderly Aronia received group (N=18)). The food was changed once a week, and the food intake and the body weight were measured once a week.
A brain function was evaluated using a passive avoidance test (a step-through test). […]
Mice were placed in a light room (9 cm width, 11.5 cm depth, 15 cm height) of a step-through passive avoidance response tester (manufactured by Muromachi Kikai Co., Ltd.), then a door to a dark room (14 cm width, 17.5 cm depth, 15 cm height) was opened 30 seconds later, and the time until the mice entered the dark room (the light room latency) was measured. […]
A retention trial was performed the day after the acquisition trial. The same operation as the acquisition trial was performed on the mice, and the latency in light room was measured. […] The latency was measured up to 300 seconds, and evaluations were made such that the longer the latency of the retention trial is, the higher the memory function is.
The brain function ameliorating effects of ursolic acid and acetylursolic acid contained in Aronia were compared in terms of the recovery of light room latency. […] When the mice reached 11 months old, a brain function was evaluated according to the method of Reference Example 1 (0.006% ursolic acid received group (N=8), and 0.002% acetylursolic acid received group (N=10)).

[2] = Body weight and food intake of SAMP10 mice during 12-week feeding; format: in vivo, mouse; conditions: AIN-93M containing 0.006% ursolic acid or 0.002% acetylursolic acid for 12 weeks
Procedure: as §1
The brain function ameliorating effects of ursolic acid and acetylursolic acid contained in Aronia were compared in terms of the recovery of light room latency. SAMP10 mice at 14 weeks old were purchased, acclimated until 8 months old, then randomly divided into two groups, and received AIN-93M containing 0.006% ursolic acid or AIN-93M containing 0.002% acetylursolic acid for 12 weeks. When the mice reached 11 months old, a brain function was evaluated according to the method of Reference Example 1 (0.006% ursolic acid received group (N=8), and 0.002% acetylursolic acid received group (N=10)).

[3] = standard products, differentiated HL-60 cells, 1 μM PMA, 37° C., 60 minutes, read-out: IC50

Row | SMILES | IC50 (NADPH oxidase (NOX)) | Inhibitory activity ratio (NADPH oxidase (NOX)) | latency in light room, acquisition trial [1] | latency in light room, retention trial [1] | IC50 (NADPH oxidase (NOX); [3]) | body weight and food intake [2]
1 | CC(=O)O[C@H]1CC[C@]2(C)[C@H]3CC=C4[C@@H]5CC(C)(C)CC[C@]5(C(=O)O)CC[C@@]4(C)[C@]3(C)CC[C@H]2C1(C)C [3-Acetyloleanolic acid] | 10 µM | 4.4 times |  |  |  | 
2 | CC(=O)O[C@H]1CC[C@]2(C)[C@H]3CC=C4[C@@H]5[C@@H](C)[C@H](C)CC[C@]5(C(=O)O)CC[C@@]4(C)[C@]3(C)CC[C@H]2C1(C)C [3-Acetylursolic acid] |  | 7.3 times | no difference between groups | stronger effect on ameliorating brain function than ursolic acid | 6 µM | 
3 | C[C@H]1[C@H](C)CC[C@]2(C(=O)O)CC[C@]3(C)C(=CC[C@@H]4[C@@]5(C)CC[C@H](O)C(C)(C)[C@@H]5CC[C@]43C)[C@H]12 [Ursolic acid, reference compound] |  |  | no difference between groups | act to inhibit an age-related decline in brain function | 44 µM | no difference
